Experimental data: patent publication US8853196B2, “Aminochromane, aminothiochromane and amino-1,2,3,4-tetrahydroquinoline derivatives, pharmaceutical compositions containing them, and their use in therapy” (AbbVie Deutschland GmbH & Co. KG, priority 2011, dated 2014)
pKi: −log10 of the molar value. Where a name gives a salt, the structure may show the parent alone.

Biological target: T1, human GlyT1c transporter (Homo sapiens, UniProt P48067)
T1 construct: expressed in transfected cells; host or cells: CHO cells (recombinant; membranes)
T1 sequence (P48067 1-706): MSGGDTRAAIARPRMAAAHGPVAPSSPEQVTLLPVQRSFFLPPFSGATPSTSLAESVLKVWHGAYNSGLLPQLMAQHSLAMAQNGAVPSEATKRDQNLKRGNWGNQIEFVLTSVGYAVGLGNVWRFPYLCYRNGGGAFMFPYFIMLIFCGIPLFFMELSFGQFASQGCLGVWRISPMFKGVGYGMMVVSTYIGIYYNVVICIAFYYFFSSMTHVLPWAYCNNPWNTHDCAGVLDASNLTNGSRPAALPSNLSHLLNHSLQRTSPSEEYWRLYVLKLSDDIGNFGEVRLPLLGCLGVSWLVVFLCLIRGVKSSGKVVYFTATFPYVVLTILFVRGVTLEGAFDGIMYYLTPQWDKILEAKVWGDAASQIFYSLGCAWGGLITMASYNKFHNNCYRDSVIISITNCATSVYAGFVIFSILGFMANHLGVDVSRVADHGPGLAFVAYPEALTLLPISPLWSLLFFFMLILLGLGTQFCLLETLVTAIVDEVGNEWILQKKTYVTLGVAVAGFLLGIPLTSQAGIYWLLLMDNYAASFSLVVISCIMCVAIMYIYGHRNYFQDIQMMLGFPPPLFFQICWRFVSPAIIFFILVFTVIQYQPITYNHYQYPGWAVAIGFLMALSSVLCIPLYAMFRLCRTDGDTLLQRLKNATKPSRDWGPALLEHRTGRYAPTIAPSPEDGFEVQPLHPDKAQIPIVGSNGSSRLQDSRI
Assay: Radioligand binding assay using recombinant CHO cell membranes expressing human GlyT1
Conditions: values given as upper bounds, read-out: radioligand binding Kiapp
Protocol: 2. Radioligand Binding Assays Using Recombinant CHO Cell Membranes Expressing Human GlyT1:
Radioligand binding to human GlyT1c transporter-expressing membranes was determined as described in Mezler et al., Molecular Pharmacology 74:1705-1715, 2008.

Cn1cc(S(=O)(=O)NCc2ccc3c(c2)[C@H](Cc2ccccc2)[C@H](N2CCC2)CO3)cn1 (relative stereo) [Example 15, cis-1-Methyl-1H-pyrazole-4-sulfonic acid (3-azetidin-1-yl-4-benzyl-chroman-6-ylmethyl)-amide]
pKi: ≥ 8.00

Cn1cc(S(=O)(=O)NCCOc2ccc3c(c2)[C@H](Cc2ccccc2)[C@H](N2CCC2)CO3)cn1 (relative stereo) [Example 16, cis-1-Methyl-1H-pyrazole-4-sulfonic acid [2-(3-azetidin-1-yl-4-benzyl-chroman-6-yloxy)-ethyl]-amide]
pKi: ≥ 8.00

CCS(=O)(=O)NCCOc1ccc2c(c1)[C@H](Cc1ccccc1)[C@H](N1CCC1)CO2 (relative stereo) [Example 18, cis-Ethanesulfonic acid [2-(3-azetidin-1-yl-4-benzyl-chroman-6-yloxy)-ethyl]-amide]
pKi: ≥ 7.00

Cn1cnc(S(=O)(=O)NCc2ccc3c(c2)[C@@H](Cc2ccccc2)[C@@H](NCC2CCCCC2)CO3)c1 (relative stereo) [Example 22, cis-1-Methyl-1H-imidazole-4-sulfonic acid [4-benzyl-3-(cyclohexylmethyl-amino)-chroman-6-lmethyl]-amide; trifluoro-acetic acid salt]
pKi: ≥ 8.00

CCS(=O)(=O)NCc1ccc2c(c1)[C@H](Cc1ccccc1)[C@H](N)CO2 (relative stereo) [Example 23, cis-Ethanesulfonic acid (3-amino-4-benzyl-chroman-6-ylmethyl)-amide]
pKi: ≥ 7.00

CCS(=O)(=O)NCc1ccc2c(c1)[C@@H](Cc1ccccc1)[C@H](N)CO2 (relative stereo) [Example 24, trans-Ethanesulfonic acid (3-amino-4-benzyl-chroman-6-ylmethyl)-amide]
pKi: ≥ 7.00

CN[C@@H]1COc2ccc(CNS(=O)(=O)C3CCC3)cc2[C@H]1Cc1ccccc1 (relative stereo) [Example 26, trans-Cyclobutanesulfonic acid (4-benzyl-3-methylamino-chroman-6-ylmethyl)-amide]
pKi: ≥ 6.00

CCS(=O)(=O)NCc1cc2c(cc1F)OC[C@@H](NC)[C@H]2Cc1ccccc1 (relative stereo) [Example 27, cis-Ethanesulfonic acid (-4-benzyl-7-fluoro-3-methylamino-chroman-6-ylmethyl)-amide]
pKi: ≥ 8.00

CCS(=O)(=O)NCc1cc2c(cc1F)OC[C@@H](NC)[C@@H]2Cc1ccccc1 (relative stereo) [Example 28, trans-Ethanesulfonic acid (-4-benzyl-7-fluoro-3-methylamino-chroman-6-ylmethyl)-amide]
pKi: ≥ 7.00

CCS(=O)(=O)NCCOc1cc2c(cc1F)OC[C@@H](NC)[C@H]2Cc1ccccc1 (relative stereo) [Example 29, cis-Ethanesulfonic acid [2-(-4-benzyl-7-fluoro-3-methylamino-chroman-6-yloxy)-ethyl]-amide]
pKi: ≥ 7.00

CCS(=O)(=O)NCCOc1cc2c(cc1F)OC[C@@H](NC)[C@@H]2Cc1ccccc1 (relative stereo) [Example 30, trans-Ethanesulfonic acid [2-(-4-benzyl-7-fluoro-3-methylamino-chroman-6-yloxy)-ethyl]-amide]
pKi: ≥ 6.00

CN[C@@H]1COc2cc(F)c(CNS(=O)(=O)c3cn(C)cn3)cc2[C@@H]1Cc1ccccc1 (relative stereo) [Example 31, cis-1-Methyl-1H-imidazole-4-sulfonic acid (-4-benzyl-7-fluoro-3-methylamino-chroman-6-ylmethyl)-amide]
pKi: ≥ 7.00

CN[C@@H]1COc2cc(F)c(CNS(=O)(=O)c3cn(C)cn3)cc2[C@H]1Cc1ccccc1 (relative stereo) [Example 32, trans-1-Methyl-1H-imidazole-4-sulfonic acid (-4-benzyl-7-fluoro-3-methylamino-chroman-6-ylmethyl)-amide]
pKi: ≥ 8.00

Cn1cnc(S(=O)(=O)NCc2ccc3c(c2)[C@H](Cc2ccccc2)[C@H](NCCC2CC2)CO3)c1 (relative stereo) [Example 33, cis-N-((-4-benzyl-3-((2-cyclopropylethyl)amino)chroman-6-yl)methyl)-1-methyl-1H-imidazole-4-sulfonamide 2,2,2-trifluoroacetate]
pKi: ≥ 8.00

Cn1cnc(S(=O)(=O)NCc2ccc3c(c2)[C@H](Cc2ccccc2)[C@H](NCCC2CCCC2)CO3)c1 (relative stereo) [Example 34, cis-N-((-4-benzyl-3-((2-cyclopentylethyl)amino)chroman-6-yl)methyl)-1-methyl-1H-imidazole-4-sulfonamide 2,2,2-trifluoroacetate]
pKi: ≥ 5.00

CCCN[C@@H]1COc2ccc(CNS(=O)(=O)c3cn(C)cn3)cc2[C@@H]1Cc1ccccc1 (relative stereo) [Example 35, cis-N-((-4-benzyl-3-(propylamino)chroman-6-yl)methyl)-1-methyl-1H-imidazole-4-sulfonamide 2,2,2-trifluoroacetate]
pKi: ≥ 8.00

Cn1cnc(S(=O)(=O)NCc2ccc3c(c2)[C@H](Cc2ccccc2)[C@H](NCC(C)(C)C)CO3)c1 (relative stereo) [Example 36, cis-N-((-4-benzyl-3-(neopentylamino)chroman-6-yl)methyl)-1-methyl-1H-imidazole-4-sulfonamide 2,2,2-trifluoroacetate]
pKi: ≥ 7.00

CC(C)CN[C@@H]1COc2ccc(CNS(=O)(=O)c3cn(C)cn3)cc2[C@@H]1Cc1ccccc1 (relative stereo) [Example 37, cis-N-((-4-benzyl-3-(isobutylamino)chroman-6-yl)methyl)-1-methyl-1H-imidazole-4-sulfonamide 2,2,2-trifluoroacetate]
pKi: ≥ 8.00

CC(C)CCN[C@@H]1COc2ccc(CNS(=O)(=O)c3cn(C)cn3)cc2[C@@H]1Cc1ccccc1 (relative stereo) [Example 39, cis-N-((-4-benzyl-3-(isopentylamino)chroman-6-yl)methyl)-1-methyl-1H-imidazole-4-sulfonamide 2,2,2-trifluoroacetate]
pKi: ≥ 8.00

Cn1cnc(S(=O)(=O)NCc2ccc3c(c2)[C@H](Cc2ccccc2)[C@H](NCC2CCCC2)CO3)c1 (relative stereo) [Example 40, cis-N-((-4-benzyl-3-((cyclopentylmethyl)amino)chroman-6-yl)methyl)-1-methyl-1H-imidazole-4-sulfonamide 2,2,2-trifluoroacetate]
pKi: ≥ 7.00

Cn1cnc(S(=O)(=O)NCc2ccc3c(c2)[C@H](Cc2ccccc2)[C@H](NCC2CCC2)CO3)c1 (relative stereo) [Example 41, cis-N-((-4-benzyl-3-((cyclobutylmethyl)amino)chroman-6-yl)methyl)-1-methyl-1H-imidazole-4-sulfonamide 2,2,2-trifluoroacetate]
pKi: ≥ 8.00

CN[C@@H]1COc2ccc(CNS(C)(=O)=O)cc2[C@H]1Cc1ccccc1 (relative stereo) [Example 61, trans-N-(-4-Benzyl-3-methylamino-chroman-6-ylmethyl)-methanesulfonamide]
pKi: ≥ 6.00

Cn1cnc(S(=O)(=O)NCc2ccc3c(c2)[C@H](Cc2ccccc2)[C@H](N2CCCC2)CO3)c1 (relative stereo) [Example 62, cis-1-Methyl-1H-imidazole-4-sulfonic acid (-4-benzyl-3-pyrrolidin-1-yl-chroman-6-ylmethyl)-amide]
pKi: ≥ 8.00
